{
  "source": "patent US20260151457A1",
  "about": "“Peptides and Fragments for Treating Diabetes and Associated Metabolic Diseases” (Betavive Ltd., priority 2024, published 2026)",
  "key": {"STZ-treated mice": {"system": "STZ-treated mice", "test": "Serum insulin and c-peptide levels in STZ-treated mice four weeks after IGF-2 treatment", "type": "in vivo", "settings": "four weeks post treatment", "description": "(§1) Fasting blood glucose levels (mg/dL) were determined using the Accu-Chek Performa glucometer (Roche Diagnostics, Mannheim, Germany). After approximately two weeks of stable hyperglycemia, C57BL/6 STZ mice received exogenous injections of recombinant human IGF-2 (0.3-12 mg/kg/day injection) intraperitoneally for 5-10 consecutive days. During post-treatment follow-up period and upon termination, mice were tested for: fasting glucose, body weight, glucose tolerance test (IPGTT), serum C-peptide level, serum insulin level, and full blood and histological analysis (CBC, Chemistry, Insulin IHC and H&E).\nC-peptide is a biomarker used to assess pancreatic beta cell function and is normally produced in equimolar amounts to endogenous insulin. Leighton et al., A Practical Review of C-Peptide Testing in Diabetes, Diabetes Ther. 2017 June; 8 (3): 475-487."}, "NOD mice [1]": {"system": "NOD mice", "test": "Serum insulin / insulin secretion in NOD mice treated with IGF-2", "type": "in vivo", "description": "FIG. 30B depicts the levels of serum insulin in NOD mice measured two weeks after a 66 day course of treatment using IGF-2. Mice that were treated with 3000 μg/kg/day of IGF-2 had serum insulin levels that were about 4-fold higher than the control mice.\nIn one exemplary experiment, NOD mice were treated with a 3000 μg/kg daily doses of IGF-2 for 150 days. ⅘ of the treated mice maintained normoglycemia compared to ¼ of the control mice. In another exemplary experiment, NOD mice were treated with a 3000 μg/kg daily dose of IGF-2 for 75 days with follow-up glucose measurements taken for an additional 90 days (during which IGF-2 was not administered). ⅝ of the treated mice maintained normoglycemia compared to 2/11 of the control mice. The average insulin secretion of the treated mice in both of these experiments was five times greater than the control mice."}, "[2]": {"test": "Blood concentration of IGF-2 after 40 μg intraperitoneal injection (ELISA)", "type": "in vivo, mouse", "settings": "240 minute time frame", "from_the_text": "Without being bound by this theory, it is believed that IGF-2 binding proteins may initially inactivate the biological activity of free IGF-2. And over time, the bond between IGF-2 and the binding protein may be released, increasing the bioavailability of IGF-2 and leading to a longer term effective treatment."}, "STZ-treated mouse islets [3]": {"system": "STZ-treated mouse islets", "test": "MTT viability of STZ-treated mouse islets", "type": "cell-based", "settings": "increasing concentrations", "from_the_text": "Yellow dye MTT is converted to a purple dye by mitochondrial reductase in viable cells. Therefore, the amount of purple dye present determined by measuring optical density of cells at 570 nm serves as a measurement of cell viability."}, "NOD mice [4]": {"system": "NOD mice", "test": "Islet cell staining for glucagon and insulin in NOD mice", "type": "in vivo", "settings": "NOD mice treated with IGF-2 for 13 weeks", "from_the_text": "FIG. 30D confirms the results shown in FIG. 30C and provides the number of cells staining positive for insulin in NOD mice treated with IGF-2 (right bar) versus untreated NOD mice (left bar)."}, "db/db mice": {"system": "db/db mice", "test": "Histopathology and immunohistochemistry of pancreas islet cells in db/db mice treated with IGF-2", "type": "in vivo", "description": "FIG. 27 provides results of histopathology and immunohistochemical studies showing the number of pancreas islet cells that test positive for insulin (left panel) and glucagon (right panel) in db/db mice. In this experiment, one group of db/db mice was injected with 12000 μg/kg of IGF-2 on each of 70 consecutive days, a second group of db/db mice was injected with saline, and a third group of db/db mice was a naïve control group. The mice were sacrificed for pathology 70 days after the end of the initial 70 day treatment.\nIn this experiment, one group of db/db mice (labeled X4) was injected with 12000 μg/kg of IGF-2 on each of 70 consecutive days, a second group of db/db mice (labeled X1) was injected with 3000 μg/kg of IGF-2 on each of 70 consecutive days, and a third group of db/db mice (labeled control) was injected with saline. The mice were sacrificed for pathology 70 days after the end of the initial 70 day treatment. […] The control panels show a positive stain for insulin, which increases in intensity in the 3000 μg/kg/day mice, and increases again in intensity in the 12,000 μg/kg/day mice."}, "STZ-treated mouse islets [5]": {"system": "STZ-treated mouse islets", "test": "Insulin secretion from STZ-treated mouse islets", "type": "cell-based", "settings": "islets treated with 2.5 mM STZ; IGF-2 50 nM and 500 nM, GLP-1 100 nM and 1000 nM; 48 hours", "description": "Mouse islet cells were treated with 2.5 mM STZ and subsequently treated with either IGF-2 (FA) at 50 nM and 500 nM, or with GLP-1 at 100 nM and 1000 nM."}, "[6]": {"system": "human pancreatic islet cells", "test": "Insulin secretion of human pancreatic islet cells in response to a glucose pulse", "type": "cell-based", "settings": "IGF-2 50 nM for four days"}, "C57BL/6 STZ mice [7]": {"system": "C57BL/6 STZ mice", "test": "Fasting blood glucose in STZ-induced diabetic C57BL/6 mice treated with IGF-2", "type": "in vivo", "settings": "IGF-2 12,000 μg/kg daily on each of 12 consecutive days"}, "C57BL/6 STZ mice [8]": {"system": "C57BL/6 STZ mice", "test": "Fasting blood glucose in STZ-induced diabetic C57BL/6 mice treated with IGF-2", "type": "in vivo", "settings": "for Fasting glucose levels: individual mice per block", "description": "C57BL/6 mice male 8-10 weeks old, housed under conventional conditions and allowed laboratory chow and water ad libitum, were used in the experiments described below in Examples 3-4. Within each experiment, animals were matched by age and weight (20-24 g) and randomly divided into groups to receive different treatments. Diabetes was induced by one or more doses of streptozotocin (STZ).\nBriefly, animals received intraperitoneally (i.p.) 100 mg/kg (b.w.) STZ (Cayman Chemical, Ann Arbor, MI) dissolved in citrate buffer on pH 4.5 (this procedure was repeated if needed). Clinical diabetes was defined by hyperglycemia (blood glucose levels >300 mg/dl in fasted animals). Fasting blood glucose levels were measured three times per week and samples were taken from the tail tip after starvation for 6 hours throughout the experiment.\nas §1"}, "[9]": {"settings": "average of four STZ mice, daily intraperitoneal 3000 μg/kg/day IGF-2"}},
  "note": "“Also recorded” adds a separate entry of the source.",
  "data": [
    {"substance": "insulin-like growth factor 2 [IGF-2]", "values": [
      {"measurement": "Increase in c-peptide levels", "setting": "STZ-treated mice; four STZ-treated mice", "value": 12, "unit": "fold"},
      {"measurement": "Increase in serum insulin compared to STZ treated control mice", "setting": "STZ-treated mice; permanently cured mice", "value": 50, "unit": "%"},
      {"measurement": "Serum insulin levels relative to the control mice", "setting": "NOD mice [1]; 3000 μg/kg/day for 66 days, measured two weeks after treatment", "value": "about 4 fold"},
      {"measurement": "Average insulin secretion of the treated mice relative to the control mice", "setting": "NOD mice [1]; both experiments (150 days; 75 days plus 90 days follow-up)", "value": "five"},
      {"measurement": "Free IGF-2 in the blood (peak)", "setting": "[2]", "value": 1, "unit": "µg"},
      {"measurement": "Peak total concentration of IGF-2 in the blood", "setting": "[2]", "value": "about 16 μg"},
      {"measurement": "Mouse islet viability (MTT, optical density at 570 nm)", "setting": "STZ-treated mouse islets [3]", "value": "increased in a dose dependent manner"},
      {"measurement": "Islet cells (histological staining for glucagon and insulin)", "setting": "NOD mice [4]", "value": "fully functional islet cells"},
      {"measurement": "Increase in the number of insulin-positive cells", "setting": "db/db mice; 12000 μg/kg on 70 consecutive days, sacrificed 70 days after end of treatment", "value": "more than 50%"},
      {"measurement": "Insulin positive cells (immunohistochemical staining)", "setting": "db/db mice; 3000 and 12000 μg/kg on 70 consecutive days", "value": "increase in insulin positive cells in a dose-dependent manner"},
      {"measurement": "Insulin secretion", "setting": "STZ-treated mouse islets [5]", "value": "increased in a dose dependent manner"},
      {"measurement": "Increase in insulin secretion in response to a glucose pulse compared to untreated cells", "setting": "[6]", "value": "~50", "unit": "%"},
      {"measurement": "Long-term improvements in blood glucose levels", "setting": "C57BL/6 STZ mice [7]", "value": "long-term improvements in blood glucose levels were obtained"},
      {"measurement": "Hypoglycemia", "setting": "C57BL/6 STZ mice [8]; 10:1 ratio of dosages, between 3000 μg and 300 μg", "value": "did not cause hypoglycemia"},
      {"measurement": "Fasting glucose levels after the ten day course of injections ended", "setting": "C57BL/6 STZ mice [8]; STZ mice F3 and F4, IGF-2 800 μg/kg/day", "value": "around 400"},
      {"measurement": "Fasting glucose levels", "setting": "C57BL/6 STZ mice [8]; STZ mice, IGF-2 300 μg/kg/day, initial plus ten additional doses", "value": "did not return to a normal range, and long-term results were not observed; also recorded: temporary drop in fasting glucose levels from days 10-25, but the long-term results were similar to the results for Mouse B5"},
      {"measurement": "Fasting glucose levels", "setting": "C57BL/6 STZ mice [8]; STZ mice, IGF-2 800 μg/kg/day, day 0 and ten more times within ten days", "value": "returned to a normal range during the ten-day course of treatment with IGF-2, and remained in the normal range until the end of the experiment; also recorded: returned to a normal range during the ten-day course of treatment with IGF-2, and remained in the normal range until STZ was provided again"},
      {"measurement": "Blood glucose levels remaining (full or almost full resolution)", "setting": "C57BL/6 STZ mice [8]; STZ mice, IGF-2 800 μg/kg/day, half the mice (FIGS. 5A, 5B)", "value": "~200", "unit": "mg/dL"},
      {"measurement": "Blood glucose levels remaining (partial improvement)", "setting": "C57BL/6 STZ mice [8]; STZ mice, IGF-2 800 μg/kg/day, the remaining mice (FIGS. 6A, 6B)", "value": "~400", "unit": "mg/dL"},
      {"measurement": "Fasting glucose levels", "setting": "C57BL/6 STZ mice [8]; STZ mice, IGF-2 3000 μg/kg/day, 10 day course", "value": "returned to a normal range during the ten-day course of treatment with IGF-2, and remained in the normal range until the end of the experiment; also recorded: returned to high levels after the 10 day course treatment with IGF-2 ended; also recorded: initially responded to treatment with a 3000 μg/kg/day dose of IGF-2 but were not permanently cured"},
      {"measurement": "Long-term improvements in blood glucose levels", "setting": "C57BL/6 STZ mice [8]; STZ mice, IGF-2 12,000 μg/kg daily on only 5 consecutive days", "value": "long-term improvements in blood glucose levels were not obtained"},
      {"measurement": "Blood glucose level reached (normal range)", "setting": "C57BL/6 STZ mice [8]; [9]", "value": "100 to 200", "unit": "mg/dL"},
      {"measurement": "Time to reduce blood glucose to a normal range", "setting": "C57BL/6 STZ mice [8]; [9]", "value": "3 to 5", "unit": "days"},
      {"measurement": "Hypoglycemia", "setting": "C57BL/6 STZ mice [8]; even when the IGF-2 dose was increased to 12,000 μg/kg/day", "value": "Hypoglycemia was never observed"},
      {"measurement": "Time post treatment that normal blood glucose levels are maintained", "setting": "C57BL/6 STZ mice [8]; four STZ mice, 10 day course at 3000 μg/kg/day, no additional doses", "value": "at least 300 days"}
    ]}
  ]
}
